pIC50, pKd: −log10 of the molar value. Blank lines part the entries; values can stand above or below the molecule they belong to.
What was measured:
[1] = biological target: T1, P450RAI-2 (Homo sapiens, UniProt Q9NR63); experiment: P450RAI-2 cell-based inhibitor assay (inhibition of all-trans-RA metabolism); details: P450RAI-2 stably transfected HeLa cells, [3H]-RA, 3 hours at 37° C.; read-out: P450RAI-2 Whole cell IC50
T1 construct: expressed in transfected cells; host or cells: HeLa
T1 sequence (Q9NR63 1-512): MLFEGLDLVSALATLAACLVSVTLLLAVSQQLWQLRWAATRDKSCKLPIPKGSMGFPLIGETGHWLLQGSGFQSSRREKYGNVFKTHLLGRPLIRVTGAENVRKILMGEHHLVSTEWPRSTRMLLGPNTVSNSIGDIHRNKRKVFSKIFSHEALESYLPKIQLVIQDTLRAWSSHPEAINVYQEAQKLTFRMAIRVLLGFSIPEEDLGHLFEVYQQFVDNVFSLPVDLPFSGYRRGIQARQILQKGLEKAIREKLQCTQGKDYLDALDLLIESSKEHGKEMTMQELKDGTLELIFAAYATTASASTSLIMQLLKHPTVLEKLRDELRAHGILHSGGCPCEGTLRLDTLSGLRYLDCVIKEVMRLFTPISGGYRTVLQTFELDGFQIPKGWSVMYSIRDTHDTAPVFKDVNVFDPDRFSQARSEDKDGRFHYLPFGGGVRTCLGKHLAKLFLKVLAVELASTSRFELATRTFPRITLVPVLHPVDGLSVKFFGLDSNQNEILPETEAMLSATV
Experimental: (§1) P450RAI-1 and P450RAI-2 Cell-Based Inhibitor Assay:
(§2) P450RAI-1 stably transfected HeLa cells, or P450RAI-2 stably transfected HeLa cells, as applicable, are maintained in […] tissue culture dishes in Modified Eagle's Medium (MEM) containing 10% Fetal Bovine Serum (FBS) and 100 μg/ml hygromycin. Exponentially growing cells are harvested by incubating in trypsin. Cells are then washed with 1× Phosphate Buffered Saline (PBS) and plated in a 48-well plate at 5×10^5 cells in 0.2 ml MEM medium containing 10% FBS and 0.05 μCi [^3H]—RA in the presence or absence of increasing concentrations of the test compounds. The compounds are diluted in 100% DMSO and then added in triplicate wells at either 10, 1 or 0.1 μM final concentration. As a positive control for RA metabolism inhibition, cells are also incubated with ketoconazole at 100, 10 and 1 μM. Cells are incubated for 3 hours at 37° C. The retinoids are then extracted using the procedure of Bligh et al. (1959) Canadian Journal of Biochemistry 37, 911-917, modified by using methylenechloride instead of chloroform. The publication Bligh et al. (1959) Canadian Journal of Biochemistry 37, 911-917 is specifically incorporated herein by reference. The water soluble radioactivity is quantified using a β-scintillation counter. […]

[2] = biological target: T2, RAR β (Homo sapiens, UniProt P10826); experiment: RARβ binding Kd (Table 1); details: last item of cell
T2 sequence (P10826 1-455): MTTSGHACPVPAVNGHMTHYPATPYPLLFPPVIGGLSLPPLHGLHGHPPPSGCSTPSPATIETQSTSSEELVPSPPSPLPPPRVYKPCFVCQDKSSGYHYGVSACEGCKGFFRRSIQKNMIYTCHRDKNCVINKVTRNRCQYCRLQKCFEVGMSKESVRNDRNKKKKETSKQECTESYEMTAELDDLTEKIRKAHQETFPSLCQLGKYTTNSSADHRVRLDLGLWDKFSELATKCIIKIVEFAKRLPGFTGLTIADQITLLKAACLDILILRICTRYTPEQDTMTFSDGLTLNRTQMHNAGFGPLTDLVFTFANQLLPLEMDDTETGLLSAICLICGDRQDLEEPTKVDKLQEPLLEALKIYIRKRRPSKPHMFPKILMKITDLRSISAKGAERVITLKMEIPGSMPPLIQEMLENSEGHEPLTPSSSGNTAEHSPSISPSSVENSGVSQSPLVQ

[3] = biological target: T3, RAR γ (Homo sapiens, UniProt P13631); experiment: RARγ binding Kd (Table 1); details: last item of cell
T3 sequence (P13631 1-454): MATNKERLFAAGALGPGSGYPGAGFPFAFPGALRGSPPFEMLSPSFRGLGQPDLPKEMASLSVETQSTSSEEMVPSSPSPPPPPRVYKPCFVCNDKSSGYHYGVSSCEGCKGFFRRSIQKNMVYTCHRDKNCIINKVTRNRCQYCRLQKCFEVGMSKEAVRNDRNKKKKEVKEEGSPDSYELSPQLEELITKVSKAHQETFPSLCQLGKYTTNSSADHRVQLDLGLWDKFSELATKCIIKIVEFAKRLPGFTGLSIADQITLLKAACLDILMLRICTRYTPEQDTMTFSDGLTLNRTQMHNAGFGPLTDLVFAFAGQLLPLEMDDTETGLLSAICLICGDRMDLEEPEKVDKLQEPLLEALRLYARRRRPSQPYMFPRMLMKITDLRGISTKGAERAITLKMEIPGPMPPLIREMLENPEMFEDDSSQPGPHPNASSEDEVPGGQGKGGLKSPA

[4] = biological target: T4, RAR α (Homo sapiens, UniProt P10276); experiment: RARα binding Kd (Table 1); details: last item of cell
T4 sequence (P10276 1-462): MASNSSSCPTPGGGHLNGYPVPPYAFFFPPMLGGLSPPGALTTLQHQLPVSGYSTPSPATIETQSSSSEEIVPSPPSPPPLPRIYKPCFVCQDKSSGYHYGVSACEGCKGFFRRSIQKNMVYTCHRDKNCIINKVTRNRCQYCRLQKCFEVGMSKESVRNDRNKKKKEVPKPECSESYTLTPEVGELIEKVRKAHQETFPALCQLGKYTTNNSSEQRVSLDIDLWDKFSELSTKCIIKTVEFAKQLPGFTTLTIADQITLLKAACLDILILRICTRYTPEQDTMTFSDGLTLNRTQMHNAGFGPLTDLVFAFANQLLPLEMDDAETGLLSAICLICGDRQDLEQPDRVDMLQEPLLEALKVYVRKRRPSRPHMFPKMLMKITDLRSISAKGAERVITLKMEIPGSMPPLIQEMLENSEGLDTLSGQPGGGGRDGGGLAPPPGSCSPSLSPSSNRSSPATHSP

[5] = biological target: T5, P450RAI-1 (Homo sapiens, UniProt O43174); experiment: P450RAI-1 cell-based inhibitor assay (inhibition of all-trans-RA metabolism); details: P450RAI-1 stably transfected HeLa cells, [3H]-RA, 3 hours at 37° C.; read-out: P450RAI-1 Whole cell IC50
T5 construct: expressed in transfected cells; host or cells: HeLa
T5 sequence (O43174 1-497): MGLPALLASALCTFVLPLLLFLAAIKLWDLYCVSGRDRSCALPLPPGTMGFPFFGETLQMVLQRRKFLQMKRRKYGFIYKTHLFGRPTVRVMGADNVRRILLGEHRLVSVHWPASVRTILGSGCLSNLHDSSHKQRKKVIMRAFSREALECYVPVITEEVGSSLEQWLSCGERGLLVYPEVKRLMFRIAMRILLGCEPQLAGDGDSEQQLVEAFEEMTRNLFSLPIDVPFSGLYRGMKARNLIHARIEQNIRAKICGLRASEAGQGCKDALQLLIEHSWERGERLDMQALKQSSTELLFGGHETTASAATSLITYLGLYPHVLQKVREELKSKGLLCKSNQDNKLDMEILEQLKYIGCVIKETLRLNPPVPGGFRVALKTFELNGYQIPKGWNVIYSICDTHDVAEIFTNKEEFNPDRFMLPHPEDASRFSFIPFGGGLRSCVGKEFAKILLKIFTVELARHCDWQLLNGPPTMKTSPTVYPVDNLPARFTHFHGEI
Experimental: as §1, §2

[6] = biological target: T3, RAR γ; experiment: RARγ EC50/efficacy (Table 1); assay type: cell-based; details: value in parentheses

pIC50 [1]: < 5.00
SMILES: CC(C(=O)O)c1ccc(C#Cc2cc(C3CC3)c3c(c2)C(C)(C)CCC3N(C)C2CC2)cc1 (stereo not drawn) [Compound 49, 2-{4-[4-Cyclopropyl-5-(cyclopropyl-methyl-amino)-8,8-dimethyl-5,6,7,8-tetrahydro-naphthalen-2-ylethynyl]-phenyl}-propionic acid]

pKd [2]: < 5.00
pKd [3]: < 5.00
pKd [4]: < 5.00
SMILES: CN(C1CC1)C1CCC(C)(C)c2cc(C#Cc3ccc(/C=C/C(=O)O)cc3)cc(C3CC3)c21 (stereo not drawn) [Compound 48, 3-{4-[4-Cyclopropyl-5-(cyclopropyl-methyl-amino)-8,8-dimethyl-5,6,7,8-tetrahydro-naphthalen-2-ylethynyl]-phenyl}-acrylic acid]

pIC50 [5]: 5.89
SMILES: CC(C)c1cc(C(=O)Oc2ccc(/C=C/C(=O)O)cc2)cc2c1OC(C)(C)CC2(C)C [Compound 16, 8-Isopropyl-2,2,4,4-tetramethyl-chroman-6-carboxylic acid 4-(2-carboxy-vinyl)-phenyl ester]

RAR γ (EFFICACY) [6]: 68
SMILES: C=Cc1c(C)c(C#Cc2ccc(CC(=O)O)cc2)cc(C(C)(C)C)c1OC(C)C [Compound 46, [4-(5-tert-Butyl-4-isopropoxy-2-methyl-3-vinyl-phenylethynyl)-phenyl]-acetic acid]
